Measured values as given in patent US4898855A, “Deuterated analogs of 1,25-dihydroxycholecalciferol” (Hoffman-La Roche Inc., priority 1987, dated 1990).
Read-outs that look alike come from different tables or passages of the source.

Experiments:
[1] = system: porcine growth-plate cartilage; test: Stimulation of porcine cartilage growth in vitro (organ culture of fetal pig scapula growth-plates); format: cell-based; conditions: for Porcine cartilage in vitro, % increase, dry weight: 14-17 days incubation
Protocol: Organ cultures of growth-plates from the scapula cartilages of fetal pigs were performed using methods previously described. (Burch WM, Lebovitz HE (1982) "Triiodothyronine stimulates maturation of porcine growth-plate cartilage in vitro." J. Clin. Investig. (70: 496.) Growth-plates (n=12/treatment group) were isolated aseptically, wet weight obtained, and then placed into individuals wells of 24 well-plastic culture plates. Growth-plates were incubated in 1.5 ml of MEM (Joklik-Modified) containing 0.5% BSA for 14-17 days. The medium was changed and fresh additives introduced every 4-5 days. This medium (MEM) was chosen because it contained antibiotics which allowed relatively long-term culture without contamination. BGJb. (Fitton-Jackson modification) medium with addition of antibiotics has also been used with similar results. At the end of the incubation, growth-plates were weighed for wet weight, then air dried for dry weight. The change in growth-plate wet weights were determined and the cartilages were photographed.

[2] = system: intestinal ^45 Ca transport (ICA); test: Stimulation of intestinal calcium absorption in rat (everted gut sac); format: in vivo; conditions: 12.5 ng/rat intrajugularly, 18 hours after injection, vitamin D-deficient low calcium diet
Bone Ca resorption (BCR) = test: Bone calcium mobilization in rat (plasma Ca increase); format: in vivo; conditions: 12.5 ng/rat intrajugularly, 18 hours after injection, vitamin D-deficient low calcium diet
Protocol: Male weanling rats (Holtzman, Madison WI.) were housed individually in overhanging wire cages and were fed a vitamin D-deficient diet containing low calcium (0.005%) and normal phosphorus (0.3%). Test compounds were dissolved in 10-20 μl of ethanol. Plasma (1.8 ml), collected from vitamin D, deficient rats was added to the ethanol solution. The test compounds were given intrajugularly in 0.3 ml of the ethanol-plasma carrier solution. Controls received carrier alone.
Bone Ca resorption (BCR) was estimated by mesuring the blood Ca increase in the treated rats. Blood was collected in heparinized tubes and centrifuged. The resulting plasma was measured for calcium concentration by atomic absorption spectroscopy. Since rats were fed a diet essentially devoid of Ca, plasma Ca increases reflected mobilization of Ca from bone, not intestinal Ca absorption.

vitamin D deficient rats = format: in vivo, rat; conditions: for Bone Mass: histomorphometric
Protocol: Rats were placed on the following protocol. […]
Ten 3 week old rats were maintained on vitamin D3 deficient diet for 6 weeks.
The following parameters in Table III were evaluated, by means which are conventional in the art, after completion the above treatments. Bone mass is measured by known histomorphometric methods.

[3] = system: embryonic chick pelvic cartilage; test: Stimulation of avian cartilage growth in vitro (organ culture of embryonic chick pelvic cartilage); conditions: for Avian cartilage in vitro, % increase, dry weight: 3-day incubation
[4] = high dose: daily 60 ng 1,25-(OH)2 D3 or 66 ng Hexa ^2 H, 3 weeks, vitamin D3 deficient diet
[5] = low dose: daily 15 ng 1,25-(OH)2 D3 or 16.5 ng Hexa ^2 H, 3 weeks, vitamin D3 deficient diet

SMILES	Porcine cartilage in vitro, % increase, ^3 H ([1]; 10^-10 M)	Porcine cartilage in vitro, % increase, ^35 S ([1]; 10^-10 M)	Porcine cartilage in vitro, % increase, dry weight ([1]; 10^-10 M)	Porcine cartilage in vitro, % increase, ^3 H ([1]; 10^-11 M)	Porcine cartilage in vitro, % increase, ^35 S ([1]; 10^-11 M)	Porcine cartilage in vitro, % increase, dry weight ([1]; 10^-11 M)	% of 1,25-(OH)2 D3 effect in rat, intestinal calcium absorption [2]	% of 1,25-(OH)2 D3 effect in rat, bone calcium mobilization (Bone Ca resorption (BCR))	Body Weight (vitamin D deficient rats; [4])	Serum Creatinine (vitamin D deficient rats; [4])	Bone Mass (vitamin D deficient rats; [4])	Body Weight (vitamin D deficient rats; [5])	Serum Ca^2+ (vitamin D deficient rats; [5])	Serum Creatinine (vitamin D deficient rats; [5])	Bone Mass (vitamin D deficient rats; [5])	Avian cartilage in vitro, % increase, ^35 S ([3]; 10^-9 M)	Avian cartilage in vitro, % increase, dry weight ([3]; 10^-9 M)	Avian cartilage in vitro, % increase, dry weight ([3]; 10^-10 M)	Avian cartilage in vitro, % increase, dry weight ([3]; 10^-11 M)	Avian cartilage in vitro, % increase, dry weight ([3]; 10^-12 M)	also measured
[2H]C([2H])([2H])C(O)(CCC[C@@H](C)[C@H]1CC[C@H]2/C(=C/C=C3/C[C@@H](O)C[C@H](O)C3=C)CCC[C@]12C)C([2H])([2H])[2H] [1,25-(OH)2 D3 -Hexa^2 H, 26,26,26,27,27,27-hexadeutero-1α,25-dihydroxycholecalciferol]	215.7%	466.0%	57.6%	123.6%	203.2%	40.9%	92%	64%	163 ± 7.2 gr	0.36 ± 0.04 mg/dL	371 ± 68 ^mm.spsp.3 /cm^3	193 ± 5 gr	11.28 ± 0.26 mg/dL	0.36 ± 0.02 mg/dL	288 ± 58 ^mm.spsp.3 /cm^3	41.0%	35.3%	29.1%	29.8%	31.2%	Porcine cartilage in vitro, % increase, dry weight ([1]; 10^-12 M): 31.5%; Porcine cartilage in vitro, % increase, dry weight ([1]; 10^-13 M): 29.5%; Serum Ca^2+ (vitamin D deficient rats; [4]): 11.20 ± 0.28 mg/dL; activity in increasing bone mass compared with 1,25-(OH)2 D3 (vitamin D deficient rats; summary of Table III): more active than 1,25-(OH)2 D3; activity in inducing hypercalcemia compared with 1,25-(OH)2 D3 (serum Ca^2+) (vitamin D deficient rats; summary of Table III): not as active as 1,25-(OH)2 D3; Avian cartilage in vitro, % increase, ^3 H proline ([3]; 10^-9 M): 148.3%; Avian cartilage in vitro, % increase, ^3 H proline ([3]; 10^-10 M): 145.4%; Avian cartilage in vitro, % increase, ^3 H thymidine ([3]; 10^-10 M): 44.3%; Avian cartilage in vitro, % increase, ^35 S ([3]; 10^-10 M): 30.1%; Avian cartilage in vitro, % increase, ^3 H proline ([3]; 10^-11 M): 131.4%; Avian cartilage in vitro, % increase, ^35 S ([3]; 10^-11 M): 26.3%; Avian cartilage in vitro, % increase, ^3 H proline ([3]; 10^-12 M): 65.0%; Avian cartilage in vitro, % increase, ^3 H thymidine ([3]; 10^-12 M): 62.5%; Avian cartilage in vitro, % increase, ^3 H proline ([3]; 10^-13 M): 36.0%; Avian cartilage in vitro, % increase, ^3 H thymidine ([3]; 10^-13 M): 57.9%; Avian cartilage in vitro, % increase, ^35 S ([3]; 10^-13 M): 21.5%; Avian cartilage in vitro, % increase, dry weight ([3]; 10^-13 M): 20.5%
[2H]C([2H])([2H])C(O)(C([2H])([2H])[2H])C([2H])([2H])CC[C@@H](C)[C@H]1CC[C@H]2/C(=C/C=C3/C[C@@H](O)C[C@H](O)C3=C)CCC[C@]12C [1,25-(OH)2 D3 -Octa^2 H, 24,24,26,26,26,27,27,27-octadeutero-1α,25-dihydroxycholecalciferol]	75%	410%	50%	20%	95%	42%		147%								10.8%	28.0%	21.6%	17.0%	10.3%	Porcine cartilage in vitro, % increase, ^3 H ([1]; 10^-9 M): 150%; Porcine cartilage in vitro, % increase, ^35 S ([1]; 10^-9 M): 490%; Porcine cartilage in vitro, % increase, dry weight ([1]; 10^-9 M): 60%; Avian cartilage in vitro, % increase, ^3 H thymidine ([3]; 10^-10 M): 25.0%; Avian cartilage in vitro, % increase, ^3 H thymidine ([3]; 10^-11 M): 20.7%; Avian cartilage in vitro, % increase, ^3 H thymidine ([3]; 10^-12 M): 15.3%
C=C1/C(=C\C=C2/CCC[C@]3(C)[C@@H]([C@H](C)CCCC(C)(C)O)CC[C@@H]23)C[C@@H](O)C[C@@H]1O [1,25-(OH)2 D3, 1α,25-dihydroxycholecalciferol, reference compound]	0%	0%	0%	0%	0%	0%	100%	100%	156 ± 15 gr	0.35 ± 0.02 mg/dL	296 ± 56 ^mm.spsp.3 /cm^3	192 ± 4.5 gr	11.87 ± 0.16 mg/dL	0.37 ± 0.04 mg/dL	156 ± 16 ^mm.spsp.3 /cm^3		31.8%	27.2%	24.1%	22.6%	Porcine cartilage in vitro, % increase, ^3 H ([1]; 10^-9 M): 300%; Porcine cartilage in vitro, % increase, ^35 S ([1]; 10^-9 M): 280%; Porcine cartilage in vitro, % increase, dry weight ([1]; 10^-9 M): 49%; Serum Ca^2+ (vitamin D deficient rats; rat, in vivo): 11.92 ± 0.40 mg/dL; Avian cartilage in vitro, % increase, ^3 H proline ([3]; 10^-10 M): 122%; Avian cartilage in vitro, % increase, ^35 S ([3]; 10^-10 M): 21.8%; Avian cartilage in vitro, % increase, ^3 H proline ([3]; 10^-11 M): 68.3%; Avian cartilage in vitro, % increase, ^35 S ([3]; 10^-11 M): 13.8%; Avian cartilage in vitro, % increase, ^3 H proline ([3]; 10^-12 M): 46.3%; Avian cartilage in vitro, % increase, ^35 S ([3]; 10^-12 M): 8.6%
